Measured values from US20060140863A1, “Production of a dye agent for colouring cells in the human or animal body” (Fluoron GMBH, priority 2002, published 2006).
Read-outs that look alike come from different tables or passages of the source.

Key:
[1] = Cytotoxicity, general statement; assay type: cell-based; conditions: biocompatible solution according to the invention, in comparison with trypan blue
From the text: Trypan blue is a cytotoxic substance, as is known for example from Solomon K D et al: Protective effect of the anterior lens capsule during extra capsular cataract extraction, OPHTHALMOLOGY, Vol 96, No 5, May 1989, 591-597, and Veckener M et al: Ocular toxicity study of trypan blue injected into the vitreous cavity of rabbit eyes, Graefe's Arch. Clin. Ex. Ophthalmol. (2002) 239:698-704. When using trypan blue therefore complete flushing out in particular of the region of the eye in which the trypan blue was used as a dye agent is required immediately after the cataract operation in order to prevent it from remaining in the body or in the eye for a prolonged period of time.

ARPE-19-cells = experiment: Cytotoxicity by protein content of treated cell cultures vs untreated controls (growth inhibition); assay type: cell-based; conditions: differing levels of concentration, 68 to 72 hours in an incubator, protein content vs untreated control
From the text: (§1) The vitality of the cells and a deduced cytotoxicity is quantitatively determined by determining the protein content of the treated cell cultures in comparison with untreated control cultures. The protein content is ascertained by a colorimetric procedure with a standard process.
(§2) It is found in this respect that cytotoxicity of a significant level corresponding to growth inhibition of more than 30% is not present.

mouse cells L 929 = experiment: as above; assay type: cell-based; conditions: L 929 cells, differing levels of concentration, 68 to 72 hours in an incubator, protein content vs untreated control
From the text: as §1, §2

[2] = known from Solomon et al 1989 and Veckener et al 2002 (rabbit eyes); cited from earlier work
[3] = Cahen 1964 and BLURHEX product information; cited from earlier work

| Molecule | cytotoxicity [1] | growth inhibition (cytotoxicity of a significant level = more than 30%) (ARPE-19-cells) | growth inhibition (cytotoxicity of a significant level = more than 30%) (mouse cells L 929) | cytotoxicity [2] | teratogenic or mutagenic action [3] |
| --- | --- | --- | --- | --- | --- |
| CCN(CC)c1ccc(C(=C2C=CC(=[N+](CC)CC)C=C2)c2cc(O)c(S(=O)(=O)[O-])cc2S(=O)(=O)[O-])cc1.CCN(CC)c1ccc(C(=C2C=CC(=[N+](CC)CC)C=C2)c2cc(O)c(S(=O)(=O)[O-])cc2S(=O)(=O)[O-])cc1.[Ca+2] [patent blue V] | does not have any cytotoxicity | ≤ 30% | ≤ 30% | – | – |
| Cc1cc(-c2ccc(/N=N/c3c(S(=O)(=O)O)cc4cc(S(=O)(=O)O)cc(N)c4c3O)c(C)c2)ccc1/N=N/c1c(S(=O)(=O)O)cc2cc(S(=O)(=O)O)cc(N)c2c1O [Trypan blue, trypan blue] | – | – | – | cytotoxic | teratogenic or mutagenic action |
| brilliant blue R | does not have any cytotoxicity | – | – | – | – |
